Source: US8022091B2, “Triazole derivative” (Taisho Pharmaceutical Co., Ltd., priority 2006, dated 2011)

Experiments:
[1] = molecular target: T1, human Edg-1 (S1P1) (Homo sapiens, UniProt P21453); experiment: S1P1 binding assay: inhibition of [33P]-S1P binding to membrane fraction of HEK-293 cells transferred with the human Edg-1 (S1P1) gene; settings: for IC50: [33P]-S1P 0.1 nM, human Edg-1 (S1P1) HEK-293 membrane fraction, 1 h at 30° C., read-out: IC50 (concentration at which binding in the absence of the test compound was inhibited by 50%)
T1 construct: expressed in transfected cells; host or cells: HEK-293
T1 sequence (P21453 whole entry): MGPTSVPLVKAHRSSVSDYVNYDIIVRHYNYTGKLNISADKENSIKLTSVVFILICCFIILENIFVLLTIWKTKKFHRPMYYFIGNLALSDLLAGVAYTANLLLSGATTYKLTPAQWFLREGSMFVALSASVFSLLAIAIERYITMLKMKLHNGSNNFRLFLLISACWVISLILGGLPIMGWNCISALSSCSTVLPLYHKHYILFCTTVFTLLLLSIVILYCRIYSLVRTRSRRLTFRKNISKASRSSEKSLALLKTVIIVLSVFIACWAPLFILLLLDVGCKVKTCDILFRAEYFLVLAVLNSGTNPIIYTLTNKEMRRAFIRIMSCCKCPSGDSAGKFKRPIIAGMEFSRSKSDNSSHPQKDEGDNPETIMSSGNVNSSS
Outline: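 Membranes from S1P1-transfected HEK-293 cells incubated 1 h at 30° C in pH 7.4 Tris buffer with fatty acid-free BSA, 0.1 nM [33P]-S1P and test compound (0.1% DMSO). Filter-bound radioactivity was counted; inhibition corrected for binding to untransfected-cell membranes, and IC50 derived from concentration series.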

[2] = test compound at 10 μM, inhibition of [33P]-S1P binding to the membrane fraction of HEK-293 cells expressing human Edg-1 (S1P1)
[3] = test compound 10 μM, inhibition of [33P]-S1P binding, membrane fraction

| Compound | melting point | inhibition at 10 µM [1, 2] | Binding assay (membrane) % inhibition (10 μM) [1, 2] | IC50 [1] | inhibition at 10 µM [1, 3] |
| --- | --- | --- | --- | --- | --- |
| CCn1c(Oc2ccccc2)nnc1[C@@H](Cc1ccccc1)NS(=O)(=O)c1ccc(Cl)c(Cl)c1 [Compound 1] | 182 to 184 °C | 93.4% | 100.8% |  |  |
| CCn1c(Sc2ccccc2)nnc1[C@@H](Cc1ccccc1)NS(=O)(=O)c1ccc(Cl)c(Cl)c1 [Compound 2] | 134 to 138 °C | 103% | 97.8% |  |  |
| CCn1c(Oc2ccc(C)cc2)nnc1[C@@H](C)NS(=O)(=O)c1ccc(Cl)c(Cl)c1 [Compound 3] | 183.5 to 187.5 °C | 98.7% |  | 4.2 nM |  |
| CCn1c(Oc2ccccc2C)nnc1[C@@H](C)NS(=O)(=O)c1ccc(Cl)c(Cl)c1 [Compound 4] | 198.5 to 200.5 °C | 95.7% |  |  |  |
| CCn1c(Oc2cccc(C)c2)nnc1[C@@H](C)NS(=O)(=O)c1ccc(Cl)c(Cl)c1 [Compound 5] | 160 to 161 °C | 97.3% |  | ≤ 35 nM |  |
| CCn1c(Oc2ccccc2Cl)nnc1[C@@H](C)NS(=O)(=O)c1ccc(Cl)c(Cl)c1 [Compound 6] | 180 to 190 °C | 98.2% |  |  |  |
| CCn1c(Oc2ccccc2)nnc1[C@@H](C)NS(=O)(=O)c1ccc(Cl)c(Cl)c1 [Compound 7] | 159.5 to 161.5 °C | 99.4% |  | 35.5 nM |  |
| CCn1c(Oc2ccc(Cl)cc2)nnc1[C@@H](C)NS(=O)(=O)c1ccc(Cl)c(Cl)c1 [Compound 8] | 179 to 189.5 °C | 100% |  | 18.5 nM |  |
| CCn1c(Oc2cccc(Cl)c2)nnc1[C@@H](C)NS(=O)(=O)c1ccc(Cl)c(Cl)c1 [Compound 9] | 145 to 148 °C | 100% |  |  |  |
| CCn1c(Oc2ccc(C)cc2)nnc1[C@@H](Cc1ccccc1)NS(=O)(=O)c1ccc(Cl)c(Cl)c1 [Compound 10] | 182.5 to 184.5 °C | 99.8% |  | 17.5 nM |  |
| CCn1c(Oc2ccc(OC)cc2)nnc1[C@@H](C)NS(=O)(=O)c1ccc(Cl)c(Cl)c1 [Compound 11] | 155 to 160 °C | 98.5% |  | 8.9 nM |  |
| CCn1c(Oc2ccc(F)cc2)nnc1[C@@H](C)NS(=O)(=O)c1ccc(Cl)c(Cl)c1 [Compound 12, 3,4-Dichloro-N-{(R)-1-[4-ethyl-5-(4-fluorophenoxy)-4H-[1,2,4]-triazol-3-yl]ethyl}benzenesulfonamide] | 190 to 192 °C | 99.2% |  | 20 nM |  |
| CCn1c(Oc2ccc(Cl)c(Cl)c2)nnc1[C@@H](C)NS(=O)(=O)c1ccc(Cl)c(Cl)c1 [Compound 13] | 152 to 156 °C | 102% |  | ≤ 35 nM |  |
| CCn1c(Oc2ccc(C)c(C)c2)nnc1[C@@H](C)NS(=O)(=O)c1ccc(Cl)c(Cl)c1 [Compound 14] | 161 to 162.5 °C | 99.5% |  | 6.4 nM |  |
| CCn1c(Oc2ccc(C3CCCCC3)cc2)nnc1[C@@H](C)NS(=O)(=O)c1ccc(Cl)c(Cl)c1 [Compound 15] | 200 to 205 °C | 103% |  | 32.5 nM |  |
| CCn1c(Oc2ccc(OC)c(OC)c2)nnc1[C@@H](C)NS(=O)(=O)c1ccc(Cl)c(Cl)c1 [Compound 16] | 125 to 127 °C | 101% |  | ≤ 35 nM |  |
| CCn1c([C@@H](C)NS(=O)(=O)c2ccc(Cl)c(Cl)c2)nnc1S(=O)(=O)c1ccc(C)cc1 [Compound 57, 3,4-Dichloro-N-[(R)-1-[4-ethyl-5(4-methylbenzenesulfonyl)-4H-[1,2,4]triazol-3-yl]-ethyl]-benzenesulfonamide] | 164 to 165 °C |  |  |  |  |
| CCn1c(Oc2cccc(N3CCN(C)CC3)c2)nnc1[C@@H](C)NS(=O)(=O)c1ccc(F)c2ccccc12 [Compound 648] |  |  |  |  | 108% |
| CCOc1ccc(NC(C)=O)cc1S(=O)(=O)N[C@H](C)c1nnc(Oc2cccc(N3CCN(C)CC3)c2)n1CC [Compound 649] |  |  |  |  | 64.7% |

| Compound | melting point | inhibition at 10 µM [1, 2] | Binding assay (membrane) % inhibition (10 μM) [1, 2] | IC50 [1] | inhibition at 10 µM [1, 3] |
| --- | --- | --- | --- | --- | --- |
| CCc1ccc(OC)c(S(=O)(=O)N[C@H](C)c2nnc(Oc3cccc(N4CCN(C)CC4)c3)n2CC)c1 [Compound 652] |  |  |  |  | 91.9% |
| CCn1c(Oc2cccc(N3CCN(C)CC3)c2)nnc1[C@@H](C)NS(=O)(=O)c1ccc(Cl)c(S(N)(=O)=O)c1 [Compound 654] |  |  |  |  | 71.7% |
| CCn1c(Oc2cccc(N3CCN(C)CC3)c2)nnc1[C@@H](C)NS(=O)(=O)c1ccc(Br)c(C(F)(F)F)c1 [Compound 657] |  |  |  |  | 94.9% |
| CCn1c(Oc2cccc(N3CCN(C)CC3)c2)nnc1[C@@H](C)NS(=O)(=O)c1cc(Br)cc(C(F)(F)F)c1 [Compound 658] |  |  |  |  | 80.4% |
| CCn1c(Oc2cccc(N3CCN(C)CC3)c2)nnc1[C@@H](C)NS(=O)(=O)c1csc2ccccc12 [Compound 662] |  |  |  |  | 95.4% |
| CCn1c(Oc2cccc(N3CCN(C)CC3)c2)nnc1[C@@H](C)NS(=O)(=O)c1ccc2cc(C)ccc2c1 [Compound 668] |  |  |  |  | 98.6% |
| CCC(NS(=O)(=O)c1ccc2c(Cl)cccc2c1)c1nnc(Oc2cccc(N3CCN(C)CC3)c2)n1CC (stereo not drawn) [Compound 671] |  |  |  | ≤ 10 nM | 101% |
| CCn1c(Oc2cccc(N3CCN(C)CC3)c2)nnc1[C@@H](C)NS(=O)(=O)c1ccc2c(c1)CCO2 [Compound 672] |  |  |  |  | 103% |
| CCn1c(Oc2cccc(N3CCN(C)CC3)c2)nnc1[C@@H](C)NS(=O)(=O)c1ccc2c(c1)CCC(C)(C)O2 [Compound 673] |  |  |  |  | 62% |
| CCn1c(Oc2cccc(N3CCN(C)CC3)c2)nnc1[C@@H](C)NS(=O)(=O)c1ccc2c(c1)OCCCO2 [Compound 674] |  |  |  |  | 97% |
| CCn1c(Oc2cccc(N3CCN(C)CC3)c2)nnc1[C@@H](C)NS(=O)(=O)c1ccc2c(c1)OCO2 [Compound 675] |  |  |  |  | 96.6% |
| CCn1c(Oc2cccc(N3CCN(C)CC3)c2)nnc1[C@@H](C)NS(=O)(=O)c1ccc2c(c1)C(C)(C)CCC2(C)C [Compound 676] |  |  |  |  | 92.6% |
| CCn1c(Oc2cccc(N3CCN(C)CC3)c2)nnc1[C@@H](C)NS(=O)(=O)c1ccc2c(c1)CCN2C(C)=O [Compound 677] |  |  |  |  | 60.8% |
| CCn1c(Oc2cccc(N3CCN(C)CC3)c2)nnc1[C@@H](C)NS(=O)(=O)c1ccc2c(c1)CCC2 [Compound 678] |  |  |  | 10.2 nM | 97.4% |
| CCn1c(Oc2cccc(N3CCN(C)CC3)c2)nnc1[C@@H](C)NS(=O)(=O)c1ccc2oc(=O)ccc2c1 [Compound 679] |  |  |  |  | 104% |
| CCn1c(Oc2ccc(F)cc2)nnc1[C@@H](C)N(CC(=O)O)S(=O)(=O)c1ccc(Cl)c(Cl)c1 [Compound 684] | 169.5 to 171.5 °C |  |  |  |  |
| CCn1c(Oc2ccc(F)cc2)nnc1C(NS(=O)(=O)c1ccc(Cl)c(Cl)c1)C(F)(F)F (stereo not drawn) [Compound 687, 3,4-Dichloro-N-[1-[4-ethyl-5-(4-fluorophenoxy)-4H-[1,2,4]triazol-3-yl]-2,2,2-trifluoroethyl]-benzenesulfonamide] |  |  |  |  | 80.1% |
| CCn1c(Oc2ccc(F)cc2)nnc1[C@@H](CF)NS(=O)(=O)c1ccc(Cl)c(Cl)c1 [Compound 689] |  |  |  |  | 92.7% |
| CCn1c(Oc2cccc(N3CCN(C(C)=O)CC3)c2)nnc1[C@@H](C)NS(=O)(=O)c1ccc2c(Cl)cccc2c1 [Compound 698] |  |  |  | 2.3 nM |  |
